Source: patent EP4653451A1, “POLYPEPTIDE COMPOUND AND USE THEREOF” (Chengdu New Radiomedicine Technology Co., Ltd., priority 2023, dated 2024)
Structures can show the parent of a compound that is named as a salt. Numbered stars: 1 amine (or outer) side, 2 acyl side, 3 side chain; on linkers, the order of the positions; unused ones are H or OH. Bridge positions count the residues as written; N and C are the ends. Square brackets hold non-standard residues; d marks the D form. Peptide text beside a SMILES is read from it. * marks the point of attachment. TBMB(SCH2CH2NH-DOTA) = O=C(O)CN1CCN(CC(=O)O)CCN(CC(=O)NCCSCc2cc(C[*:1])cc(C[*:2])c2)CCN(CC(=O)O)CC1; 1Nal = N[C@@H](Cc1cccc2ccccc12)C(=O)O; β3hC = N[C@@H](CS)CC(=O)O; Hexanoyl = CCCCCC(=O)*

What was measured:
[1] = target: T1, human recombinant DPP4 protein (Homo sapiens, UniProt P27487); assay: Inhibitory activity against DPP4 protease activity (H-Gly-Pro-AMC fluorescence); type: biochemical; settings: 125 pM DPP4 working solution, 90 min at room temperature
T1 construct: purchased Acrobiosystems DP4-H5211
Description: The human recombinant DPP4 protein (Acrobiosystems, DP4-H5211) was formulated into a 125 pM working solution with an assay buffer (20 mM Tris-HCl, 100 mM NaCl), and the DPP4 substrate (H-Gly-Pro-AMC.HBr (LEONBIO, 115035-46-6)) was diluted to a 250 µM DPP4 substrate working solution with the assay buffer. 40 µl of DPP4 working solution and 20 µl of compounds at different concentrations (4-fold dilution) were taken, then 40 µl of DPP4 substrate working solution was added, and the mixture was uniformly mixed on a shaker at room temperature for 1 min. The uniformly mixed mixture was reacted at room temperature in the dark for 90 min. Reading was made by microplate reader at excitation and emission wavelengths of 380 nm and 460 nm. The original data was saved, and the IC50 value of the compound was obtained by analyzing the data with Graphpad PRISM.

[2] = in vitro; settings: CD-1, mouse, plasma
Description: The plasma stability experiment was performed using plasma from CD-1 mice. The compounds were diluted to a concentration of 1 mM with methanol. To 0.792 mL of plasma, 8.00 µL of 1 mM of each test compound was added, and 50.0 µL of the plasma sample was taken after uniform mixing. The remaining sample was placed in a 37°C water bath and incubated for 24 h. […] After centrifugation, the sample was diluted 1-fold with 0.2% trifluoroacetic acid and analyzed by LC-MS/MS.

[3] = target: T2, human recombinant FAP protein (Homo sapiens, UniProt Q12884); assay: Inhibitory activity against FAP protease activity (Z-Gly-Pro-AMC fluorescence); type: biochemical; settings: 125 pM FAP working solution, 90 min at room temperature; read-out: FAP IC50
T2 construct: purchased Acrobiosystems FAP-H82Q6
T2 sequence (Q12884 1-760): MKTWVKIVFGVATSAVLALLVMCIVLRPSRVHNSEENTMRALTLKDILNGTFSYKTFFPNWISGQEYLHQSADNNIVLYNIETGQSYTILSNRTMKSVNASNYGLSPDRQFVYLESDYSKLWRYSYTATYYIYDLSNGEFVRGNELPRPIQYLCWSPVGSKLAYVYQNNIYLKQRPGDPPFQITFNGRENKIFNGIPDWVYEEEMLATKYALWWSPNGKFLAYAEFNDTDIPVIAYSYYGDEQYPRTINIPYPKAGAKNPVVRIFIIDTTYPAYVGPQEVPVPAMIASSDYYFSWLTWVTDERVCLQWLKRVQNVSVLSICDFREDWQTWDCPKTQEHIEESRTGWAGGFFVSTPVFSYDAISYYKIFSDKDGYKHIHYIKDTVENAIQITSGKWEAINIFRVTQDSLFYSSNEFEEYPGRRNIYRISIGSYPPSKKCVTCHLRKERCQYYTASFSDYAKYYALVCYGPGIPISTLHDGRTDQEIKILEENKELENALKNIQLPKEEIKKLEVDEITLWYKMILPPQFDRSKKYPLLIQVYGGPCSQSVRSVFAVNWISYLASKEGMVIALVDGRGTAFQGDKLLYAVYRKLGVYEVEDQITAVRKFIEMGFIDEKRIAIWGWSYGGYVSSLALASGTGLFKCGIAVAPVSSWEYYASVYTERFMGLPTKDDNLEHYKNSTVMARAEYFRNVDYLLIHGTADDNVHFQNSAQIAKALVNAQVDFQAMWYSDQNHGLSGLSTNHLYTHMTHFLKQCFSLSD
Description: The human recombinant FAP protein (Acrobiosystems, FAP-H82Q6) was diluted to a 125 pM FAP working solution with an assay buffer (50 mM Tris-HCl, 1 M NaCl, 1 mg/mL BSA, pH 7.5), and the FAP substrate (Z-Gly-Pro-AMC (LEONBIO, 68542-93-8)) was diluted to a 150 µM substrate working solution with the assay buffer. 40 µl of FAP working solution and 20 µl of compounds at different concentrations (4-fold dilution) were taken, then 40 µl of substrate working solution was added, and the mixture was uniformly mixed on a shaker at room temperature for 1 min. The uniformly mixed mixture was reacted at room temperature in the dark for 90 min. The fluorescence value Ex = 380 nm/Em = 460 nm was read by using a microplate reader. The original data was saved, and the IC50 value of the compound was obtained by using the original data or the Inhibition% via calculation and analyzing the data with Graphpad PRISM.

[4] = target: T3, human recombinant PREP protein (Homo sapiens, UniProt P48147); assay: Inhibitory activity against PREP protease activity, reported as PREP/FAP IC50 ratio; type: biochemical; settings: ratio of PREP IC50 to FAP IC50
T3 construct: purchased R&D systems 4308-SE-010
T3 sequence (P48147 1-710): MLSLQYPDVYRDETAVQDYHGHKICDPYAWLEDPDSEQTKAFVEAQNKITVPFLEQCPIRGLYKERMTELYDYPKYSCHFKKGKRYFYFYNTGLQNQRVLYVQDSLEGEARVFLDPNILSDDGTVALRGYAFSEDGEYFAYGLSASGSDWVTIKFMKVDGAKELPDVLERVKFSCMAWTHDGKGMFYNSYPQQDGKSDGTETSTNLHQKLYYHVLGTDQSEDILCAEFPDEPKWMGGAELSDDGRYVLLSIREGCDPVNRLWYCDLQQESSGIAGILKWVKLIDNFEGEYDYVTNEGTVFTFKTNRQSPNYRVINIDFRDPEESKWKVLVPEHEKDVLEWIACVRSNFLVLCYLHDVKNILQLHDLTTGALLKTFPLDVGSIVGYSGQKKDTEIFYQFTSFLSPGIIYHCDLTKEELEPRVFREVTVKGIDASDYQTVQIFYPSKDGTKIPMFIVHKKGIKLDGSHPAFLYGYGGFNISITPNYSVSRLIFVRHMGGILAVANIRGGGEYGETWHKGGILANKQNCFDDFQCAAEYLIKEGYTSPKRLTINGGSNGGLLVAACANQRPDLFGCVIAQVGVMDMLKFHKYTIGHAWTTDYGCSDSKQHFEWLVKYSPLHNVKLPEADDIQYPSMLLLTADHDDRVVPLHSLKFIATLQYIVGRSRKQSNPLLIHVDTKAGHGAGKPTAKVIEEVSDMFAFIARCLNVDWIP
Description: The human recombinant PREP protein (R&D systems, 4308-SE-010) was formulated into a 125 pM working solution with a assay buffer (25 mM Tris-HCl, 250 mM NaCl, 2.5 mM DTT, 1 mg/mL BSA), and the PREP substrate (Z-Gly-Pro-AMC (LEONBIO, 68542-93-8)) was diluted to a 125 µM PREP substrate working solution with the assay buffer. 40 µl of PREP working solution and 20 µl of compounds at different concentrations (4-fold dilution) were taken, then 40 µl of PREP substrate working solution was added, and the mixture was uniformly mixed on a shaker at room temperature for 1 min. The uniformly mixed mixture was reacted at room temperature in the dark for 90 min. Reading was made by microplate reader at excitation and emission wavelengths of 380 nm and 460 nm. The original data was saved, and the IC50 value of the compound was obtained by analyzing the data with Graphpad PRISM.

T1 sequence (P27487 whole entry): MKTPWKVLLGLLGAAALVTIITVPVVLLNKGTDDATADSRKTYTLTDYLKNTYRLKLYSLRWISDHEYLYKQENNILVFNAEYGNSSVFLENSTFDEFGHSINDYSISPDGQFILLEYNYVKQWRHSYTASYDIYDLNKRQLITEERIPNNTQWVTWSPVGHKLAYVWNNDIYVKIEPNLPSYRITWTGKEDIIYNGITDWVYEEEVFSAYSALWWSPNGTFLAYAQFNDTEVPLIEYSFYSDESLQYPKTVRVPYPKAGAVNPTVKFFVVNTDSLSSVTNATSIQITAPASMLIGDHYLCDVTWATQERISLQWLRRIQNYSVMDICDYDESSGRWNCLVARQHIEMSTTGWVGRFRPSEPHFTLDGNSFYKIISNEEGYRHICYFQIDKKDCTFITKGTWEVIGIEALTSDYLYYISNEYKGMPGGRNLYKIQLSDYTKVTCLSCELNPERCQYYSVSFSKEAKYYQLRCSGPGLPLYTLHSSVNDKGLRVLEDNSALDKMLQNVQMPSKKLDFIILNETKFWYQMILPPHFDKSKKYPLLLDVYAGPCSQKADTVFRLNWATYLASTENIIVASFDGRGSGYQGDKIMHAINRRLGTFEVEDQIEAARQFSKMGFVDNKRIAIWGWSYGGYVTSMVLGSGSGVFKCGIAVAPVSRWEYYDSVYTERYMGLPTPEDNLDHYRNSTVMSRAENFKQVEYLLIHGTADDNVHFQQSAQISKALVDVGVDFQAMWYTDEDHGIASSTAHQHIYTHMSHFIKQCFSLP

Row | IC50 [1] [µM] | remaining at 24 h, 10 µM [2] [%] | IC50 [3] [nM] | PREP/FAP [4] | Compound
1 | > 10 | 87 | – | – | CCCCCC(=O)N[C@H]1CSCc2cc(CSCCNC(=O)CN3CCN(CC(=O)O)CCN(CC(=O)O)CCN(CC(=O)O)CC3)cc(c2)CSC[C@@H](C(=O)O)NC(=O)[C@H](Cc2ccccc2)NC(=O)[C@H](CCC(N)=O)NC(=O)[C@H]([C@@H](C)O)NC(=O)[C@@H]2CCCN2C(=O)[C@@H]2CCCN2C1=O [Compound 3BP-3554, reference compound]
2 | > 10 | 94 | 0.26 | – | CCCCCC(=O)N[C@H]1CSCc2cc(CSCCNC(=O)CN3CCN(CC(=O)O)CCN(CC(=O)O)CCN(CC(=O)O)CC3)cc(c2)CSC[C@@H](CC(=O)O)NC(=O)[C@H](Cc2cccc3ccccc23)NC(=O)[C@H](CCC(N)=O)NC(=O)[C@H]([C@@H](C)O)NC(=O)[C@@H]2CCCN2C(=O)[C@@H]2CCCN2C1=O [Compound 11, Hex-Cys-Pro-Pro-Thr-Gln-1Nal-beta-HomoCys (Cys bridge TBMB (DOTA-AET)) trifluoroacetate] (Hexanoyl-CPPTQ[1Nal][β3hC]-OH; linker 1-7 via TBMB(SCH2CH2NH-DOTA))
3 | > 10 | 94 | 0.46 | A (A > 10000) | CCCCCC(=O)N[C@H]1CSCc2cc(CSCCNC(=O)CN3CCN(CC(=O)O)CCN(CC(=O)O)CCN(CC(=O)O)CC3)cc(c2)CSC[C@@H](CC(=O)O)NC(=O)[C@H](Cc2ccccc2C(F)(F)F)NC(=O)[C@H](CCC(N)=O)NC(=O)[C@H]([C@@H](C)O)NC(=O)[C@@H]2CCCN2C(=O)[C@@H]2CCCN2C1=O [Compound 12, Hex-Cys-Pro-Pro-Thr-Gln- Phe(2-CF3)-beta-HomoCys (Cys bridge TBMB (DOTA-AET)) trifluoroacetate]
4 | > 10 | 100 | 0.97 | – | CCCCCC(=O)N[C@H]1CSCc2cc(CSCCNC(=O)CN3CCN(CC(=O)O)CCN(CC(=O)O)CCN(CC(=O)O)CC3)cc(c2)CSC[C@@H](CC(=O)N[C@@H](Cc2ccc3ccccc3c2)C(=O)O)NC(=O)[C@H](Cc2ccccc2)NC(=O)[C@H](CCC(N)=O)NC(=O)[C@H]([C@@H](C)O)NC(=O)[C@@H]2CCCN2C(=O)[C@@H]2CCCN2C1=O [Compound 13, Hex-Cys-Pro-Pro-Thr-Gln-Phe-beta-HomoCys-2Nal (Cys bridge TBMB (DOTA-AET)) trifluoroacetate]
5 | > 10 | 93 | 0.67 | B (10000 > B > 3300) | CCCCCC(=O)N[C@H]1CSCc2cccc(c2F)CSC[C@@H](CNC(=O)C[C@H]2CC[C@H](NC(=O)CCNC(=O)CN3CCN(CC(=O)O)CCN(CC(=O)O)CCN(CC(=O)O)CC3)CC2)NC(=O)[C@H](Cc2ccccc2)NC(=O)[C@H](CCC(N)=O)NC(=O)[C@H]([C@@H](C)O)NC(=O)[C@@H]2CCCN2C(=O)[C@@H]2CCCN2C1=O [Compound 15, Hex-Cys-Pro-Pro-Thr-Gln-Phe-Cys-CH2NH-(trans-4-aminocyclohexane acetic acid-betaAla-DOTA) (Cys bridge 2,6-bis(bromomethyl)fluorobenzene) trifluoroacetate]
6 | > 10 | 96 | 0.41 | B (10000 > B > 3300) | CCCCCC(=O)N[C@H]1CSCc2cccc(c2F)CSC[C@@H](CNC(=O)C[C@@H](C)NC(=O)[C@H]2CC[C@H](CNC(=O)CN3CCN(CC(=O)O)CCN(CC(=O)O)CCN(CC(=O)O)CC3)CC2)NC(=O)[C@H](Cc2ccccc2)NC(=O)[C@H](CCC(N)=O)NC(=O)[C@H]([C@@H](C)O)NC(=O)[C@@H]2CCCN2C(=O)[C@@H]2CCCN2C1=O [Compound 16, Hex-Cys-Pro-Pro-Thr-Gln-Phe-Cys-CH2NH-(D-beta-HomoAla-tranexamic acid-DOTA) (Cys bridge 2,6-bis(bromomethyl)fluorobenzene) trifluoroacetate]
7 | – | – | – | B (10000 > B > 3300) | Hex-Cys-Pro-Pro-Thr-Gln-Phe-Cys-CH2NH-cyclopentacarboxylic acid (Cys bridge TBMB (DOTA-AET)) trifluoroacetate [Compound 14]

Row | Compound | IC50 [1] [µM] | remaining at 24 h, 10 µM [2] [%] | IC50 [3] [nM] | PREP/FAP [4]
8 | Hex-Cys-Pro-Pro-Thr-Gln-Phe-Cys-CH2NHAc (Cys bridge TBMB (DOTA-AET)) trifluoroacetate [Compound 10] | – | – | – | A (A > 10000)
